Counter-ions that a name gives are not always drawn.
How the values were obtained:
[1] = molecular target: T1, human EP1 receptor (Homo sapiens, UniProt P34995); test: human EP1 calcium mobilisation assay; format: cell-based; parameters: expressed in transfected cells; settings: CHO-K1 cells, antagonism of PGE2; averages of a number of experiments; read-out: functional pKi value (human EP1 calcium mobilisation assay) (converted)
T1 sequence (P34995 1-402): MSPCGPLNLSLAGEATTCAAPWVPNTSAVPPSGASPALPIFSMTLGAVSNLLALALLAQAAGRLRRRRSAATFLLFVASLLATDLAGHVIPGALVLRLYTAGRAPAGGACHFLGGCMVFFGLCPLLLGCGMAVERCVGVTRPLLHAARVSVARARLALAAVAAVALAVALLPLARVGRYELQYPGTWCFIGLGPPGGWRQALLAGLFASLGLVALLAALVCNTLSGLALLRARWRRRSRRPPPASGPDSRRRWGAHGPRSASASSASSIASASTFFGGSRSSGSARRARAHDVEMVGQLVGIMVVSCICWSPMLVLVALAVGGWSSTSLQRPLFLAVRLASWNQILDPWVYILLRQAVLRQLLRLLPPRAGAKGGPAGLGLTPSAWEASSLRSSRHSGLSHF
Method: Briefly, the antagonist properties of compounds are assessed by their ability to inhibit the mobilisation of intracellular calcium ([Ca^2+]i) in response to activation of EP1 or EP3 receptors by the natural agonist hormone prostaglandin E2 (PGE2). Increasing concentrations of antagonist reduce the amount of calcium that a given concentration of PGE2 can mobilise. The net effect is to displace the PGE2 concentration-effect curve to higher concentrations of PGE2. The amount of calcium produced is assessed using a calcium-sensitive fluorescent dye such as Fluo-4, AM and a suitable instrument such as a Fluorimetric Imaging Plate Reader (FLIPR). Increasing amounts of [Ca^2+]i produced by receptor activation increase the amount of fluorescence produced by the dye and give rise to an increasing signal. The signal may be detected using the FLIPR instrument and the data generated may be analysed with suitable curve-fitting software.
The human EP1 or EP3 calcium mobilisation assay (hereafter referred to as ‘the calcium assay’) utilises Chinese hamster ovary-K1 (CHO-K1) cells into which a stable (PCIN; BioTechniques 20 (1996): 102-110) vector containing either EP1 or EP3 cDNA has previously been transfected. Cells are cultured in suitable flasks containing culture medium such as DMEM:F-12 supplemented with 10% v/v foetal calf serum, 2 mM L-glutamine, 0.25 mg/ml geneticin, 100 μM flurbiprofen and 10 μg/ml puromycin.
For assay, cells are harvested using a proprietary reagent that dislodges cells such as Versene. Cells are re-suspended in a suitable quantity of fresh culture media for introduction into a 384-well plate. Following incubation for 24 hours at 37° C. the culture media is replaced with a medium containing Fluo-4 and the detergent pluronic acid, and a further incubation takes place. Concentrations of compounds are then added to the plate in order to construct concentration-effect curves. This may be performed on the FLIPR in order to assess the agonist properties of the compounds. Concentrations of PGE2 are then added to the plate in order to assess the antagonist properties of the compounds.
The data so generated may be analysed by means of a computerised curve-fitting routine. The concentration of compound that elicits a half-maximal inhibition of the calcium mobilisation induced by PGE2 (pIC50) may then be estimated.

[2] = molecular target: T1, human EP1 receptor; test: Binding assay for the human prostanoid EP1 receptor (radioligand competition); parameters: expressed in transfected cells; host or cells: CHO-K1 (membranes); settings: CHO-K1 membranes; [3H]-PGE2 for Examples 1-17, 19, 33, 34, 60 and 61, 3-{2-[5-Bromo-2-(2,4-difluorobenzyloxy)-phenyl]-5-methyl-pyrrol-1-yl}-6-[3H3-methoxy]methoxy-benzoic acid for the remaining; averages of a number of experiments; read-out: pIC50 value (binding assay for the human prostanoid EP1 receptor) (converted)
Method: Compound potencies are determined using a radioligand binding assay. In this assay compound potencies are determined from their ability to compete with tritiated prostaglandin E2 ([^3H]-PGE2) for binding to the human EP1 receptor.
This assay utilises Chinese hamster ovary-K1 (CHO-K1) cells into which a stable vector containing the EP1 cDNA has previously been transfected. Cells are cultured in suitable flasks containing culture medium such as DMEM:F-12 supplemented with 10% v/v foetal calf serum, 2 mM L-glutamine, 0.25 mg/ml geneticin, 10 μg/ml puromycin and 10 μM indomethacin.
Cells are detached from the culture flasks by incubation in calcium and magnesium free phosphate buffered saline containing 1 mM disodium ethylenediaminetetraacetic acid (Na2EDTA) and […] indomethacin for 5 min. The cells are isolated by centrifugation at 250×g for 5mins and suspended in an ice cold buffer such as 50 mM Tris, 1 mM Na2EDTA, 140 mM NaCl, 10 μM indomethacin (pH 7.4). The cells are homogenised using a Polytron tissue disrupter (2×10 s burst at full setting), centrifuged at 48,000×g for 20mins and the pellet containing the membrane fraction is washed (optional) three times by suspension and centrifugation at 48,000×g for 20mins. The final membrane pellet is suspended in an assay buffer such as 10 mM 2-[N-morpholino]ethanesulphonic acid, 1 mM Na2EDTA, 10 mM MgCl2 (pH 6). Aliquots are frozen at −80° C. until required.
(§1) For the binding assay the cell membranes, competing compounds and [^3H]-PGE2 (3 nM final assay concentration) are incubated in a final volume of 100 μl for 30 min at 30° C. All reagents are prepared in assay buffer. Reactions are terminated by rapid vacuum filtration over GF/B filters using a Brandell cell harvester. The filters are washed with ice cold assay buffer, dried and the radioactivity retained on the filters is measured by liquid scintillation counting in Packard TopCount scintillation counter.
The data are analysed using non linear curve fitting techniques to determine the concentration of compound producing 50% inhibition of specific binding (IC50).
Alternatively a similar assay may be carried out using 3-{2-[5-Bromo-2-(2,4-difluoro-benzyloxy)-phenyl]-5-methyl-pyrrol-1-yl}-6-[^3H3-methoxy]methoxy-benzoic acid instead of [^3H]-PGE2.
For the binding assay using 3-{2-[5-Bromo-2-(2,4-difluoro-benzyloxy)-phenyl]-5-methyl-pyrrol-1-yl}-6-[^3H3-methoxy]methoxy-benzoic acid instead of [^3H]-PGE2 the assay is carried out using a similar procedure to that described above using [^3H]-PGE2 with the following changes:
as §1, with “The” for “For the binding assay the”, “3-{2-[5-Bromo-2-(2,4-difluoro-benzyloxy)-phenyl]-5-methyl-pyrrol-1-yl}-6-[^3H3-methoxy]methoxy-benzoic acid (0.2” for “[^3H]-PGE2 (3”, “400” for “100”, “45” for “30”, “37°” for “30°”, “water at ambient temperature,” for “ice cold assay buffer,”
The preparation of 3-{2-[5-Bromo-2-(2,4-difluoro-benzyloxy)-phenyl]-5-methyl-pyrrol-1-yl}-6-methoxy-benzoic acid is described in WO 03/101959 and in Hall et al, Biorg. Med. Chem. Lett., 2007, 17, 916-920. The tritiated version may be prepared via conventional routes, e.g. from 3-{2-[5-bromo-2-(2,4-difluoro-benzyloxy)-phenyl]-5-methyl-pyrrol-1-yl}-6-hydroxy-benzoic acid or 3-{2-[5-bromo-2-(2,4-difluoro-benzyloxy)-phenyl]-5-methyl-pyrrol-1-yl}-6-hydroxy-benzoic acid methyl ester.

Row | Ki [1] [nM] | IC50 [2] [nM] | SMILES
1 | ≤ 316 | ≤ 100 | Cc1cc(-c2nc3ccccc3[nH]2)nn1Cc1cc(Cl)cc2cc(C(C)C)oc12 [Example 5, 2-(1-{[5-Chloro-2-(1-methylethyl)-1-benzofuran-7-yl]methyl}-5-methyl-1H-pyrazol-3-yl)-1H-benzimidazole Hydrochloride]
2 | ≤ 316 | ≤ 100 | Cc1cc(C(=O)NN2CCOCC2)nn1Cc1cc(Cl)cc2cc(C(C)C)oc12 [Example 7, 1-{[5-Chloro-2-(1-methylethyl)-1-benzofuran-7-yl]methyl}-5-methyl-N-4-morpholinyl-1H-pyrazole-3-carboxamide]
3 | ≤ 316 | ≤ 100 | CC(C)c1cc2cc(Cl)cc(Cc3ccc(-c4nc5cc(CO)ccc5[nH]4)o3)c2o1 [Example 9, [2-(5-{[5-Chloro-2-(1-methylethyl)-1-benzofuran-7-yl]methyl}-2-furanyl)-1H-benzimidazol-5-yl]methanol Hydrochloride]
4 | ≤ 316 | ≤ 100 | Cc1cc(C(=O)NN2CCOCC2)nn1Cc1cc(Br)cc2cc(C(C)C)oc12 [Example 18, 1-{[5-Bromo-2-(1-methylethyl)-1-benzofuran-7-yl]methyl}-5-methyl-N-4-morpholinyl-1H-pyrazole-3-carboxamide]
5 | ≤ 316 | ≤ 100 | Cc1cc(C(=O)O)nn1Cc1cc(Br)cc2cc(C(C)C)oc12 [Example 19, 1-{[5-Bromo-2-(1-methylethyl)-1-benzofuran-7-yl]methyl}-5-methyl-1H-pyrazole-3-carboxylic Acid]
6 | ≤ 316 | ≤ 100 | CC(C)c1cc2cc(Cl)cc(Cc3cccc(C(=O)O)n3)c2o1 [Example 24]
7 | ≤ 316 | ≤ 100 | Cc1cc(C(=O)O)nn1Cc1cc(C#N)cc2cc(C(C)C)oc12 [Example 25, 1-{[5-Cyano-2-(1-methylethyl)-1-benzofuran-7-yl]methyl}-5-methyl-1H-pyrazole-3-carboxylic Acid]
8 | ≤ 316 | ≤ 100 | Cc1cc(C(=O)O)nn1Cc1cc(Cl)cc2cc(C(C)(C)C)oc12 [Example 27, 1-{[5-Chloro-2-(1,1-dimethylethyl)-1-benzofuran-7-yl]methyl}-5-methyl-1H-pyrazole-3-carboxylic Acid]
9 | ≤ 316 | ≤ 100 | Cc1cc(C(=O)NC2CCOCC2)nn1Cc1cc(Cl)cc2cc(C3CCCCC3)oc12 [Example 29, 1-[(5-Chloro-2-cyclohexyl-1-benzofuran-7-yl)methyl]-5-methyl-N-(tetrahydro-2H-pyran-4-yl)-1H-pyrazole-3-carboxamide]
10 | ≤ 316 | ≤ 100 | CC(C)c1cc2cc(Cl)cc(Cc3ccc(C(N)=O)o3)c2o1 [Example 37, 5-{[5-Chloro-2-(1-methylethyl)-1-benzofuran-7-yl]methyl}-2-furancarboxamide]
11 | 1000 to 1580 | ≤ 100 | CC(C)c1cc2cc(Cl)cc(Cc3ccc(C(=O)NCC4CCNCC4)o3)c2o1 [Example 48]
12 | – | ≤ 100 | Cc1cc(C(=O)Nc2ccc(CN3CCC(O)CC3)cc2)nn1Cc1cc(Br)cc2cc(C(C)C)oc12 [Example 49, 1-{[5-Bromo-2-(1-methylethyl)-1-benzofuran-7-yl]methyl}-N-{4-[(4-hydroxy-1-piperidinyl)methyl]phenyl}-5-methyl-1H-pyrazole-3-carboxamide Hydrochloride]
13 | ≤ 316 | ≤ 100 | CNCc1ccc(NC(=O)c2cc(C)n(Cc3cc(Br)cc4cc(C(C)C)oc34)n2)cc1 [Example 50, 1-{[5-Bromo-2-(1-methylethyl)-1-benzofuran-7-yl]methyl}-5-methyl-N-{4-[(methylamino)methyl]phenyl}-1H-pyrazole-3-carboxamidehydrochloride]
14 | ≤ 316 | ≤ 100 | Cc1cc(C(=O)Nc2ccc(CN3CCOCC3)cc2)nn1Cc1cc(Br)cc2cc(C(C)C)oc12 [Example 52, 1-{[5-Bromo-2-(1-methylethyl)-1-benzofuran-7-yl]methyl}-5-mthyl-N-[4-(4-morpholinylmethyl)phenyl]-1H-pyrazole-3-carboxamidehydrochloride]
15 | – | ≤ 100 | Cc1cc(NC(=O)[C@H]2CC[C@@H](O)CC2)nn1Cc1cc(Cl)cc2cc(C(C)C)oc12 [Example 62, cis-N-(1-{[5-Chloro-2-(1-methylethyl)-1-benzofuran-7-yl]methyl}-5-methyl-1H-pyrazol-3-yl)-4-hydroxycyclohexanecarboxamide]
16 | – | ≤ 100 | Cc1cc(NC(=O)[C@H]2CC[C@H](O)CC2)nn1Cc1cc(Cl)cc2cc(C(C)C)oc12 [Example 63, trans-N-(1-{[5-chloro-2-(1-methylethyl)-1-benzofuran-7-yl]methyl}-5-methyl-1H-pyrazol-3-yl)-4-hydroxycyclohexanecarboxamide]
17 | – | ≤ 100 | Cc1cc(NC(=O)c2ccc(CN3CCCC3)cc2)nn1Cc1cc(Cl)cc2cc(C(C)C)oc12 [Example 67]

Row | SMILES | Ki [1] [nM] | IC50 [2] [nM]
18 | Cc1cc(C(=O)NN2CCCCC2)nn1Cc1cc(Cl)cc2cc(C(C)C)oc12 [Example 6, 1-{[5-Chloro-2-(1-methylethyl)-1-benzofuran-7-yl]methyl}-5-methyl-N-1-piperidinyl-1H-pyrazole-3-carboxamide] | ≤ 316 | ≤ 100
